target: SMYD2 (Homo sapiens (Human), UniProt Q9NRG4); assay: Scintillation Proximity Assay (SPA) for detection of SMYD2 enzymatic inhibition; type: biochemical; settings: methylation of biotinylated p53 Peptide, 3H-SAM, full length SMYD2; read-out: IC50 [mol/l] (SPA Assay)
Procedure: 1.1 Scintillation Proximity Assay (SPA) for Detection of SMYD2 Enzymatic Inhibition
The SMYD2 full length enzyme was produced in-house by expression (with an N-terminal 6×His tag) in E. coli and purification by affinity chromatography on a Ni-NTA Sepharose column followed by a size exclusion chromatography step on a Superdex 200 16/60 column (GE Healthcare).
To this end, 100-fold concentrated compound solutions (in DMSO) were previously prepared by serial dilution (1:3.4) of 2 mM stocks in a clear low volume 384-well source microtiter plate (Greiner Bio-One), from which 50 nl of compound solutions were transferred into a white low volume test microtiter plate from the same supplier. […] The samples were then incubated for 15 min at 22° C. to allow pre-equilibration of the putative enzyme-inhibitor complexes before the start of the methylation reaction, which was initiated by the addition of 2.5 μl 2-fold concentrated solution (in assay buffer) of titrated S-Adenosyl-L-Methionine (3H-SAM, Perkin Elmer, final concentration: 60 nM) and p53 Peptide substrate (final concentration: 1.0 μM). The resulting mixture (5 μl final volume) was shortly centrifuged (2 min., 1500 rpm) and incubated at 22° C. during 30 min. Thereupon the reaction was stopped by adding 3 μl of Streptavidin PS SPA imaging beads (Perkin Elmer, final concentration of 3.12 μg/μl) and “cold” SAM (AK Scientific, 25 μM final concentration) for non-specific binding reduction. Plates containing the stopped reaction were sealed with transparent adhesive foil (Perkin Elmer), centrifuged (2 min., 1500 rpm), and further incubated for—at least—1 h at RT (or overnight at 4° C.) in order to allow the SPA signals to develop. […] IC50 values were calculated by fitting the normalized inhibition data to a 4-parameter logistic equation using the “Screener” analysis software from Genedata.

SMYD2, sequence (Q9NRG4 whole entry): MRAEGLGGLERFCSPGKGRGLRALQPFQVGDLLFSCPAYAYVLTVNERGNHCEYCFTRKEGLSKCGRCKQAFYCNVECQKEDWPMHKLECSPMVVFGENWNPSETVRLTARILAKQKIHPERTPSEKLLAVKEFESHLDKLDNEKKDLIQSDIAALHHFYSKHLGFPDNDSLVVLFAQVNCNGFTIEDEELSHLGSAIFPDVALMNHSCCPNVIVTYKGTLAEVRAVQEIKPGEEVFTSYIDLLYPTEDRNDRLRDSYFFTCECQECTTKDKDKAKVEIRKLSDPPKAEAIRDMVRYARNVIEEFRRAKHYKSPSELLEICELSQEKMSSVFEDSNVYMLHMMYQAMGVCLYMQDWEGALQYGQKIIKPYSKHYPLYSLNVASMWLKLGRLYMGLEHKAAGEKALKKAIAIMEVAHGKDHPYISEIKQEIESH

Row | Compound | IC50 [nM]
1 | C[C@H](O)C(=O)NC1CN(/C(=N\C#N)Nc2cccc(OC(F)F)c2)N=C1c1ccc(Cl)c(Cl)c1 (mixture of isomers) [Example 1, (2S)—N-[1-{N′-cyano-N-[3-(difluoromethoxy)phenyl]carbamimidoyl}-3-(3,4-dichlorophenyl)-4,5-dihydro-1H-pyrazol-4-yl]-2-hydroxypropanamide] | 518
2 | CN(C(=O)CO)C1CN(/C(=N\C#N)Nc2cccc(OC(F)F)c2)N=C1c1ccc(Cl)c(Cl)c1 (racemic) [Example 2, Rac-N-[1-{N′-cyano-N-[3-(difluoromethoxy)phenyl]carbamimidoyl}-3-(3,4-dichlorophenyl)-4,5-dihydro-1H-pyrazol-4-yl]-2-hydroxy-N-methylacetamide] | 83.3
3 | CCN(C(=O)CO)C1CN(/C(=N\C#N)Nc2cccc(OC(F)(F)F)c2F)N=C1c1ccc(Cl)c(Cl)c1 (racemic) [Example 12, Rac-N-[1-{N′-cyano-N-[2-fluoro-3-(trifluoromethoxy)phenyl]carbamimidoyl}-3-(3,4-dichlorophenyl)-4,5-dihydro-1H-pyrazol-4-yl]-N-ethyl-2-hydroxyacetamide] | 138
4 | CCN(C(=O)CO)C1CN(/C(=N\C#N)Nc2ccc(F)c(OC(F)(F)F)c2)N=C1c1ccc(Cl)c(Cl)c1 (racemic) [Example 14, Rac-N-[1-{N′-cyano-N-[4-fluoro-3-(trifluoromethoxy)phenyl]carbamimidoyl}-3-(3,4-dichlorophenyl)-4,5-dihydro-1H-pyrazol-4-yl]-N-ethyl-2-hydroxyacetamide] | 147
5 | CCN(C(=O)CN)C1CN(/C(=N\C#N)Nc2cccc(OCCN(C)C)c2)N=C1c1ccc(Cl)c(Cl)c1 (racemic) [Example 17, Rac-N-[1-(N′-cyano-N-{3-[2-(dimethylamino)ethoxy]phenyl}carbamimidoyl)-3-(3,4-dichlorophenyl)-4,5-dihydro-1H-pyrazol-4-yl]-N-ethylglycinamide] | 59.5
6 | CCN(C(=O)CO)C1CN(/C(=N\C#N)Nc2ccc(F)c(OC(F)F)c2)N=C1c1ccc(Cl)c(Cl)c1 (racemic) [Example 22, Rac-N-[1-{N′-cyano-N-[3-(difluoromethoxy)-4-fluorophenyl]carbamimidoyl}-3-(3,4-dichlorophenyl)-4,5-dihydro-1H-pyrazol-4-yl]-N-ethyl-2-hydroxyacetamide] | 64.8
7 | CCN(C(=O)CO)C1CN(/C(=N\C#N)Nc2cccc(OC(F)F)c2F)N=C1c1ccc(Cl)c(Cl)c1 (racemic) [Example 23, Rac-N-[1-{N′-cyano-N-[3-(difluoromethoxy)-2-fluorophenyl]carbamimidoyl}-3-(3,4-dichlorophenyl)-4,5-dihydro-1H-pyrazol-4-yl]-N-ethyl-2-hydroxyacetamide] | 67.4
8 | CCN(C(=O)CO)C1CN(/C(=N\C#N)Nc2cc(F)cc(OC(F)F)c2)N=C1c1ccc(Cl)c(Cl)c1 (racemic) [Example 24, Rac-N-[1-{N′-cyano-N-[3-(difluoromethoxy)-5-fluorophenyl]carbamimidoyl}-3-(3,4-dichlorophenyl)-4,5-dihydro-1H-pyrazol-4-yl]-N-ethyl-2-hydroxyacetamide] | 63.1
9 | CCN(C(=O)CO)C1CN(/C(=N\C#N)Nc2cc(OC(F)(F)F)ccc2OC)N=C1c1ccc(Cl)c(Cl)c1 (racemic) [Example 26, Rac-N-[1-{N′-cyano-N-[2-methoxy-5-(trifluoromethoxy)phenyl]carbamimidoyl}-3-(3,4-dichlorophenyl)-4,5-dihydro-1H-pyrazol-4-yl]-N-ethyl-2-hydroxyacetamide] | 30.6
10 | CCN(C(=O)CO)C1CN(/C(=N\C#N)Nc2cc(C(F)(F)F)ccc2OC(F)(F)F)N=C1c1ccc(Cl)c(Cl)c1 (racemic) [Example 28, Rac-N-[1-{N′-cyano-N-[2-(trifluoromethoxy)-5-(trifluoromethyl)phenyl]carbamimidoyl}-3-(3,4-dichlorophenyl)-4,5-dihydro-1H-pyrazol-4-yl]-N-ethyl-2-hydroxyacetamide] | 140
11 | CCN(C(=O)CO)C1CN(/C(=N\C#N)Nc2cc(C(F)(F)F)ccc2OCCN2CCCC2)N=C1c1ccc(Cl)c(Cl)c1 (racemic) [Example 30, Rac-N-[r-(N′-cyano-N-[2-[2-(pyrrolidin-1-yl)ethoxy]-5-(trifluormethyl)phenyl]carbamimidoyl)-3-(3,4-dichlorophenyl)-4,5-dihydro-1H-pyrazol-4-yl]-N-ethyl-2-hydroxyacetamide] | 15.8
12 | CCN(C(=O)CO)C1CN(/C(=N\C#N)Nc2cccc(OC(F)(F)F)c2)N=C1c1ccc(Cl)c(F)c1 (racemic) [Example 35, Rac-N-[3-(4-chloro-3-fluorophenyl)-1-{N′-cyano-N-[3-(trifluoromethoxy)phenyl]-carbamimidoyl}-4,5-dihydro-1H-pyrazol-4-yl]-N-ethyl-2-hydroxyacetamide] | 157
13 | CCN(C(=O)[C@H](N)CC(C)C)C1CN(/C(=N\C#N)Nc2cccc(OC(F)(F)F)c2)N=C1c1ccc(Cl)c(Cl)c1 (stereo partly drawn) [Example 39, N-[1-{N′-cyano-N-[3-(trifluoromethoxy)phenyl]carbamimidoyl}-3-(3,4-dichlorophenyl)-4,5-dihydro-1H-pyrazol-4-yl]-N-ethyl-D-leucinamide] | 2400
14 | CCN(C(=O)[C@H](N)C(C)C)C1CN(/C(=N\C#N)Nc2cccc(OC(F)(F)F)c2F)N=C1c1ccc(Cl)c(Cl)c1 (stereo partly drawn) [Example 40, N-[1-{N′-Cyano-N-[2-fluoro-3-(trifluoromethoxy)phenyl]carbamimidoyl}-3-(3,4-dichlorophenyl)-4,5-dihydro-1H-pyrazol-4-yl]-N-ethyl-D-valinamide] | 418

Second part, the compound after the results:

Row | IC50 [nM] | Compound
15 | 44.1 | CCN(C(=O)CO)C1CN(/C(=N\C#N)Nc2ccc(Cl)c(OC(F)F)c2)N=C1c1ccc(Cl)c(Cl)c1 (single isomer, unassigned) [Example 11.1, N-[1-{N-[4-chloro-3-(difluoromethoxy)phenyl]-N′-cyanocarbamimidoyl}-3-(3,4-dichlorophenyl)-4,5-dihydro-1H-pyrazol-4-yl]-N-ethyl-2-hydroxyacetamide]
16 | 2980 | CCN(C(=O)CO)C1CN(/C(=N\C#N)Nc2ccc(Cl)c(OC(F)F)c2)N=C1c1ccc(Cl)c(Cl)c1 (single isomer, unassigned) [Example 11.2, N-[1-{N-[4-chloro-3-(difluoromethoxy)phenyl]-N′-cyanocarbamimidoyl}-3-(3,4-dichlorophenyl)-4,5-dihydro-1H-pyrazol-4-yl]-N-ethyl-2-hydroxyacetamide]
17 | 2660 | CCN(C(=O)CO)C1CN(/C(=N\C#N)Nc2cccc(OC(F)(F)F)c2F)N=C1c1ccc(Cl)c(Cl)c1 (single isomer, unassigned) [Example 12.1, N-[1-{N′-cyano-N-[2-fluoro-3-(trifluoromethoxy)phenyl]carbamimidoyl}-3-(3,4-dichlorophenyl)-4,5-dihydro-1H-pyrazol-4-yl]-N-ethyl-2-hydroxyacetamide]
18 | 54.1 | CCN(C(=O)CO)C1CN(/C(=N\C#N)Nc2cccc(OC(F)(F)F)c2F)N=C1c1ccc(Cl)c(Cl)c1 (single isomer, unassigned) [Example 12.2, N-[1-{N′-cyano-N-[2-fluoro-3-(trifluoromethoxy)phenyl]carbamimidoyl}-3-(3,4-dichlorophenyl)-4,5-dihydro-1H-pyrazol-4-yl]-N-ethyl-2-hydroxyacetamide]
19 | 2510 | CCN(C(=O)CO)C1CN(/C(=N\C#N)Nc2cc(F)cc(OC(F)F)c2)N=C1c1ccc(Cl)c(Cl)c1 (single isomer, unassigned) [Example 24.1, N-[1-{N′-cyano-N-[3-(difluoromethoxy)-5-fluorophenyl]carbamimidoyl}-3-(3,4-dichlorophenyl)-4,5-dihydro-1H-pyrazol-4-yl]-N-ethyl-2-hydroxyacetamide]
20 | 19.2 | CCN(C(=O)CO)C1CN(/C(=N\C#N)Nc2cc(F)cc(OC(F)F)c2)N=C1c1ccc(Cl)c(Cl)c1 (single isomer, unassigned) [Example 24.2, N-[1-{N′-cyano-N-[3-(difluoromethoxy)-5-fluorophenyl]carbamimidoyl}-3-(3,4-dichlorophenyl)-4,5-dihydro-1H-pyrazol-4-yl]-N-ethyl-2-hydroxyacetamide]
21 | 15400 | CCN(C(=O)[C@H](C)N)C1CN(/C(=N\C#N)Nc2cccc(OC(F)F)c2)N=C1c1ccc(Cl)c(C)c1 (single isomer, unassigned) [Example 34.1, N-[3-(4-chloro-3-methylphenyl)-1-{N′-cyano-N-[3-(difluoromethoxy)phenyl]carbamimidoyl}-4,5-dihydro-1H-pyrazol-4-yl]-N-ethyl-L-alaninamide]
22 | 488 | CCN(C(=O)[C@H](C)N)C1CN(/C(=N\C#N)Nc2cccc(OC(F)F)c2)N=C1c1ccc(Cl)c(C)c1 (single isomer, unassigned) [Example 34.2, N-[3-(4-chloro-3-methylphenyl)-1-{N′-cyano-N-[3-(difluoromethoxy)phenyl]carbamimidoyl}-4,5-dihydro-1H-pyrazol-4-yl]-N-ethyl-L-alaninamide]

— patent US10023539B2, “Aryl-cyanoguanidine compounds” (Bayer Pharma Aktiengesellschaft, priority 2014, dated 2018)
